Values joined by “and” are separate entries in the source; they are usually repeats but may differ in a detail not shown here. Equal entries are not always repeated. Where two headings read alike, the source gives them in different places.
Legend:
SARS-CoV-2 RNA = assay: Phase 2a trial: RT-PCR for SARS-CoV-2 RNA in nasopharyngeal swabs (Example 2); type: in vivo
[1] = not given; remark: listed apart in the source
[2] = Part 2 interim, safety population

**Q.** Which “Change from baseline in SARS-CoV-2 viral load, least squares mean” value (shortened to “Change from baseline”) (SARS-CoV-2 RNA; 200 mg, Day 3) does the source give for CC(C)C(=O)OC[C@H]1O[C@@H](n2ccc(NO)nc2=O)[C@H](O)[C@@H]1O [Compound A, {(2R,3S,4R,5R)-3,4-dihydroxy-5-[4-(hydroxyimino)-2-oxo-3,4-dihydropyrimidin-1 (2H)-yl]oxolan-2-yl}methyl 2-methylpropanoate] here?
**A.** −0.783 log10 copies/ml

**Q.** What about the “Difference in least squares mean viral load change vs placebo” value (SARS-CoV-2 RNA; 200 mg, Day 3) of the same molecule?
**A.** 0.064 log10 copies/ml

**Q.** And the “Change from baseline” value (SARS-CoV-2 RNA; 200 mg, Day 5)?
**A.** −1.471 log10 copies/ml

**Q.** And the “Difference in least squares mean viral load change vs placebo” value (SARS-CoV-2 RNA; 200 mg, Day 5)?
**A.** −0.150 log10 copies/ml

**Q.** What about the “Change from baseline” value (SARS-CoV-2 RNA; 200 mg, Day 7) of the same molecule?
**A.** −2.028 log10 copies/ml

**Q.** And the “Difference in least squares mean viral load change vs placebo” value (SARS-CoV-2 RNA; 200 mg, Day 7)?
**A.** −0.076 log10 copies/ml

**Q.** And the “Change from baseline” value (SARS-CoV-2 RNA; 200 mg, Day 14)?
**A.** −2.884 log10 copies/ml

**Q.** And the “Difference in least squares mean viral load change vs placebo” value (SARS-CoV-2 RNA; 200 mg, Day 14)?
**A.** −0.019 log10 copies/ml

**Q.** What about the “Change from baseline” value (SARS-CoV-2 RNA; 400 mg, Day 3) of the same molecule?
**A.** −0.941 log10 copies/ml

**Q.** What about the “Difference in least squares mean viral load change vs placebo” value (SARS-CoV-2 RNA; 400 mg, Day 3) of the same molecule?
**A.** −0.094 log10 copies/ml

**Q.** What about the “Change from baseline” value (SARS-CoV-2 RNA; 400 mg, Day 5) of the same molecule?
**A.** −1.754 log10 copies/ml

**Q.** What about the “Difference in least squares mean viral load change vs placebo” value (SARS-CoV-2 RNA; 400 mg, Day 5) of the same molecule?
**A.** −0.434 log10 copies/ml

**Q.** What about the “Change from baseline” value (SARS-CoV-2 RNA; 400 mg, Day 7) of the same molecule?
**A.** −2.263 log10 copies/ml

**Q.** What about the “Difference in least squares mean viral load change vs placebo” value (SARS-CoV-2 RNA; 400 mg, Day 7) of the same molecule?
**A.** −0.311 log10 copies/ml

**Q.** What about the “Change from baseline” value (SARS-CoV-2 RNA; 400 mg, Day 14) of the same molecule?
**A.** −2.840 log10 copies/ml

**Q.** What about the “Difference in least squares mean viral load change vs placebo” value (SARS-CoV-2 RNA; 400 mg, Day 14) of the same molecule?
**A.** 0.026 log10 copies/ml

**Q.** And the “Median time to response (SARS-CoV-2 viral RNA negativity)” value (SARS-CoV-2 RNA; 800 mg twice daily 5 days)?
**A.** 14 days and 14.0 days

**Q.** And the “Change from baseline” value (SARS-CoV-2 RNA; 800 mg, Day 3)?
**A.** −1.050 log10 copies/ml

**Q.** And the “Difference in least squares mean viral load change vs placebo” value (SARS-CoV-2 RNA; 800 mg, Day 3)?
**A.** −0.203 log10 copies/ml

**Q.** What about the “Change from baseline” value (SARS-CoV-2 RNA; 800 mg, Day 5) of the same molecule?
**A.** −1.867 log10 copies/ml

**Q.** What about the “Difference in least squares mean viral load change vs placebo” value (SARS-CoV-2 RNA; 800 mg, Day 5) of the same molecule?
**A.** −0.547 log10 copies/ml

**Q.** And the “Change from baseline” value (SARS-CoV-2 RNA; 800 mg, Day 7)?
**A.** −2.485 log10 copies/ml

**Q.** And the “Difference in least squares mean viral load change vs placebo” value (SARS-CoV-2 RNA; 800 mg, Day 7)?
**A.** −0.534 log10 copies/ml

**Q.** And the “Change from baseline” value (SARS-CoV-2 RNA; 800 mg, Day 14)?
**A.** −3.040 log10 copies/ml

**Q.** And the “Difference in least squares mean viral load change vs placebo” value (SARS-CoV-2 RNA; 800 mg, Day 14)?
**A.** −0.175 log10 copies/ml

**Q.** What about the “Median time to clearance of viral RNA” value (SARS-CoV-2 RNA; 800 mg, participants seronegative at baseline (sensitivity analysis)) of the same molecule?
**A.** 14 days

**Q.** And the “participants with serious adverse events resulting in hospitalization” value (400-mg group)?
**A.** 3.2%

**Q.** And the “participants with serious adverse events resulting in hospitalization” value (800-mg group)?
**A.** 1.8%

**Q.** And the “incidence of treatment-associated adverse events” value (800-mg group compared with the other groups)?
**A.** lowest

**Q.** And the “adverse events that led to discontinuation” value (Compound A groups combined)?
**A.** 1.4%

**Q.** What about the adverse events (all doses, similar to placebo) of the same molecule?
**A.** few, and mainly low-grade

**Q.** What about the “Grade 3 or higher adverse events” value (combined Compound A groups) of the same molecule?
**A.** 5.0%

**Q.** What about the “hematology or clinical chemistry data” value (during the study) of the same molecule?
**A.** no dose-related trends

**Q.** What about the “AE: COVID-19 pneumonia” value ([1]; Part 2 interim) of the same molecule?
**A.** 4.9%

**Q.** What about the “AE: bacterial pneumonia” value ([1]; Part 2 interim) of the same molecule?
**A.** 2.1%

**Q.** And the “AE: worsening COVID-19” value ([1]; Part 2 interim)?
**A.** 8.0%

**Q.** And the tolerability ([1]; Part 2 interim analysis)?
**A.** well-tolerated

**Q.** What about the Died [1, 2] of the same molecule?
**A.** (0.0) %

**Q.** What about the “Estimated difference vs placebo: Died” value [1, 2] of the same molecule?
**A.** −2.6%

**Q.** And the “adverse event: Covid-19 pneumonia” value ([1]; final)?
**A.** 6.3%

**Q.** What about the “adverse event: bacterial pneumonia” value ([1]; final) of the same molecule?
**A.** 2.0%

**Q.** And the “adverse event: worsening of Covid-19” value ([1]; final)?
**A.** 7.9%

**Q.** And the Death ([1]; final, safety population)?
**A.** 2 (0.3) number (percent)

**Q.** And the “Estimated Difference (95% CI) vs placebo: Death” value ([1]; final, safety population)?
**A.** −1.4 (−2.7 to −0.5) percentage points

**Q.** What about the “AE: diarrhea” value ([1]; human, in vivo) of the same molecule?
**A.** 3.9%

**Q.** And the “AE: nausea” value ([1]; human, in vivo)?
**A.** 2.8%

**Q.** What about the “AE: respiratory failure” value ([1]; human, in vivo) of the same molecule?
**A.** 1.0%

**Q.** And the “At least 1 serious AE” value ([1]; human, in vivo)?
**A.** (7.3) %

**Q.** What about the “At least 1 serious drug-related AE” value ([1]; human, in vivo) of the same molecule?
**A.** (0.0) %

**Q.** What about the “Discontinued the assigned regimen because of a serious adverse event” value ([1]; human, in vivo) of the same molecule?
**A.** 5 (0.7) number (percent)

**Q.** What about the “Discontinued the assigned regimen because of a serious adverse event related to the assigned regimen” value ([1]; human, in vivo) of the same molecule?
**A.** 0 number (percent)

**Q.** And the “Discontinued the assigned regimen because of an adverse event” value ([1]; human, in vivo)?
**A.** 10 (1.4) number (percent)

**Q.** What about the “Discontinued the assigned regimen because of an adverse event related to the assigned regimen” value ([1]; human, in vivo) of the same molecule?
**A.** 4 (0.6) number (percent)

**Q.** What about the “Discontinued treatment due to a drug-related AE” value ([1]; human, in vivo) of the same molecule?
**A.** (0.8) %

**Q.** What about the “Discontinued treatment due to a serious AE” value ([1]; human, in vivo) of the same molecule?
**A.** (0.3) %

**Q.** What about the “Discontinued treatment due to a serious drug-related AE” value ([1]; human, in vivo) of the same molecule?
**A.** (0.0) %

**Q.** What about the “Discontinued treatment due to an AE” value ([1]; human, in vivo) of the same molecule?
**A.** (1.3) %

**Q.** What about the “Estimated Difference (95% CI) vs placebo: discontinued because of a serious adverse event” value ([1]; human, in vivo) of the same molecule?
**A.** −1.2 (−2.5 to 0.0) percentage points

**Q.** And the “Estimated Difference (95% CI) vs placebo: discontinued because of a serious adverse event related to the assigned regimen” value ([1]; human, in vivo)?
**A.** 0.0 (−0.5 to 0.5) percentage points

**Q.** What about the “Estimated Difference (95% CI) vs placebo: discontinued because of an adverse event” value ([1]; human, in vivo) of the same molecule?
**A.** −1.4 (−3.1 to 0.1) percentage points

**Q.** And the “Estimated Difference (95% CI) vs placebo: discontinued because of an adverse event related to the assigned regimen” value ([1]; human, in vivo)?
**A.** 0.1 (−0.8 to 1.1) percentage points

**Q.** And the “Estimated Difference (95% CI) vs placebo: ≥1 Adverse event” value ([1]; human, in vivo)?
**A.** −2.5 (−7.4 to 2.3) percentage points

**Q.** And the “Estimated Difference (95% CI) vs placebo: ≥1 Adverse event related to the assigned regimen” value ([1]; human, in vivo)?
**A.** −0.4 (−3.3 to 2.5) percentage points

**Q.** What about the “Estimated Difference (95% CI) vs placebo: ≥1 Serious adverse event” value ([1]; human, in vivo) of the same molecule?
**A.** −2.7 (−5.6 to 0.2) percentage points

**Q.** And the “Estimated Difference (95% CI) vs placebo: ≥1 Serious adverse event related to the assigned regimen” value ([1]; human, in vivo)?
**A.** −0.1 (−0.8 to 0.4) percentage points

**Q.** What about the “Estimated difference vs placebo: At least 1 AE” value ([1]; human, in vivo) of the same molecule?
**A.** −4.6%

**Q.** And the “Estimated difference vs placebo: At least 1 drug-related AE” value ([1]; human, in vivo)?
**A.** 1.4%

**Q.** What about the “Estimated difference vs placebo: At least 1 serious AE” value ([1]; human, in vivo) of the same molecule?
**A.** −6.7%

**Q.** What about the “Estimated difference vs placebo: At least 1 serious drug-related AE” value ([1]; human, in vivo) of the same molecule?
**A.** 0.0%

**Q.** And the “Estimated difference vs placebo: Discontinued treatment due to a drug-related AE” value ([1]; human, in vivo)?
**A.** −0.0%

**Q.** And the “Estimated difference vs placebo: Discontinued treatment due to a serious AE” value ([1]; human, in vivo)?
**A.** −2.1%

**Q.** What about the “Estimated difference vs placebo: Discontinued treatment due to a serious drug-related AE” value ([1]; human, in vivo) of the same molecule?
**A.** 0.0%

**Q.** What about the “Estimated difference vs placebo: Discontinued treatment due to an AE” value ([1]; human, in vivo) of the same molecule?
**A.** −2.1%

**Q.** And the “adverse event related to the trial regimen: diarrhea” value ([1]; human, in vivo)?
**A.** 1.7%

**Q.** And the “adverse event related to the trial regimen: dizziness” value ([1]; human, in vivo)?
**A.** 1.0%

**Q.** And the “adverse event related to the trial regimen: nausea” value ([1]; human, in vivo)?
**A.** 1.4%

**Q.** What about the “adverse event: diarrhea” value ([1]; human, in vivo) of the same molecule?
**A.** 2.3%

**Q.** What about the “drug-related AE: diarrhea” value ([1]; human, in vivo) of the same molecule?
**A.** 3.1%

**Q.** What about the “drug-related AE: nausea” value ([1]; human, in vivo) of the same molecule?
**A.** 2.3%

**Q.** What about the “participants with adverse events considered related to the trial regimen” value ([1]; human, in vivo) of the same molecule?
**A.** 8.0%

**Q.** And the “≥1 Adverse event” value ([1]; human, in vivo)?
**A.** 216 (30.4) number (percent)

**Q.** What about the “≥1 Adverse event related to the assigned regimen” value ([1]; human, in vivo) of the same molecule?
**A.** 57 (8.0) number (percent)

**Q.** What about the “≥1 Serious adverse event” value ([1]; human, in vivo) of the same molecule?
**A.** 49 (6.9) number (percent)

**Q.** What about the “≥1 Serious adverse event related to the assigned regimen” value ([1]; human, in vivo) of the same molecule?
**A.** 0 number (percent)

**Q.** What about the hematological laboratory tests ([1]; in vivo) of the same molecule?
**A.** no clinically significant abnormalities

**Q.** And the liver parameters ([1]; in vivo)?
**A.** No clinically significant abnormalities in liver parameters

**Q.** What about the “participants meeting prespecified criteria for platelets <50,000/μL or potential drug-induced liver injury” value ([1]; in vivo) of the same molecule?
**A.** No participants in the Compound A group met prespecified criteria

**Q.** What about the “participants meeting prespecified criteria for postbaseline platelet count below 50,000 per microliter” value ([1]; in vivo) of the same molecule?
**A.** One participant

**Q.** And the “number of doses sufficient to demonstrate efficacy” value (H1N1; administered every 12 hours, ferret model of influenza)?
**A.** Three

**Q.** And the “dose demonstrating efficacy against H1N1” value (H1N1; ferrets)?
**A.** 7 mg/kg BID
